# Measurements: patent US9814238B2, “Herbicide composition” (ISHIHARA SANGYO KAISHA, LTD., priority 2013, dated 2017)
# Key:
# Assay type in all cases: in vivo
# [1] = tested on: common horsetail (Equisetum arvense); assay: Test Example 5: foliar treatment of common horsetail in orchard field, visual growth inhibition rate; conditions: foliar treatment at height 15 to 20 cm, 23rd day after treatment
# From the text: (§1) When the herbicidal activity in a case where two active ingredients are combined, is larger than the simple sum of the respective herbicidal activities of the two active ingredients (the expected activity), it is called a synergistic effect. The activity expected by the combination of two active ingredients can be calculated as follows (Colby S. R., “Weed”, vol. 15, p. 20-22, 1967). E=α+β−(α×β÷100) where α: growth inhibition rate when treated with x (g/ha) of herbicide X,
# (§2) β: growth inhibition rate when treated with y (g/ha) of herbicide Y,
# (§3) E: growth inhibition rate expected when treated with x (g/ha) of herbicide X and y (g/ha) of herbicide Y.
# (§4) That is, when the actual growth inhibition rate (measured value) is larger than the growth inhibition rate by the above calculation (calculated value), the activity by the combination can be regarded as showing a synergistic effect.
# (§5) An orchard field was compartmentalized into 0.5 square meter per test section, When common horsetail (Equisetum arvense) which naturally grew thereafter reached a height of from 15 to 20 cm, predetermined amounts of ME formulation containing tiafenacil as an active ingredient (the same as in Test Example 3) and WG formulation containing flazasulfuron as an active ingredient (the same as in Test Example 1) were diluted with water (in an amount corresponding to 300 L/ha) containing 0.5 vol % of an agricultural adjuvant (tradename: Destiny HC, manufactured by Winfield Solutions LLC.) and applied for foliar treatment by a small sprayer.
# (§6) On the 23rd day after treatment, the state of growth of the common horsetail was visually observed to determine the growth inhibition rate in accordance with the same evaluation standard as in Test Example 1. The growth inhibition rate (%) (measured value) and the growth inhibition rate (%) (calculated value) calculated by the Colby's formula are shown in Table 5.
# [2] = tested on: large crabgrass (Digitaria sanguinalis L.); assay: Test Example 4: foliar treatment of large crabgrass in orchard field, visual growth inhibition rate; conditions: foliar treatment at height 50 to 55 cm, 23rd day after treatment
# From the text: as §1, §2, §3, §4
# as §5, with “section.” for “section,”, “large crabgrass (Digitaria sanguinalis L.)” for “common horsetail (Equisetum arvense)”, “50” for “15”, “55” for “20”
# as §6, with “[…]” for “horsetail”, “4.” for “5.”
# [3] = tested on: large crabgrass (Digitaria sanquinalis L.); assay: Test Example 1: foliar treatment of large crabgrass in vat, visual growth inhibition rate; conditions: foliar treatment at 7-leaf stage, 24th day after treatment
# From the text: as §1, §2, §3, §4
# Upland field soil was put into a 1/1,000,000 ha vat, and seeds of large crabgrass (Digitaria sanquinalis L.) were sown. When the large crabgrass reached 7-leaf stage, predetermined amounts of an emulsifiable concentrate (EC formulation) containing tiafenacil prepared by a conventional method, water dispersible granules containing flazasulfuron as an active ingredient (WG formulation, tradename: SHIBAGEN DF manufactured by Ishihara Sangyo Kaisha, Ltd.), were diluted with water in an amount corresponding to 300 L/ha, and applied for foliar treatment by a small sprayer.
# as §6, with “24th” for “23rd”, “large crabgrass” for “common horsetail”, “following” for “same”, “standard.” for “standard as in Test Example 1.”, “1. Growth inhibition rate (%)=0 (equivalent to the non-treated area) to 100 (complete kill)” for “5.”
# [4] = tested on: common dayflower (Commelina communis L.); assay: Test Example 3: foliar treatment of common dayflower in orchard field, visual growth inhibition rate; conditions: foliar treatment at height 35 to 40 cm, 23rd day after treatment
# From the text: as §1, §2, §3, §4
# as §5, with “section.” for “section,”, “dayflower (Commelina communis L.)” for “horsetail (Equisetum arvense)”, “35” for “15”, “40” for “20”, “a microemulsion (ME formulation)” for “ME formulation”, “prepared by a conventional method” for “as an active ingredient (the same as in Test Example 3)”
# as §6, with “dayflower” for “horsetail”, “3.” for “5.”
# [5] = tested on: large crabgrass (Digitaria sanguinalis L.); assay: Test Example 2: soil treatment of large crabgrass in pot, visual growth inhibition rate; conditions: soil treatment day after sowing, 14th day after treatment
# From the text: as §1, §2, §3, §4
# Upland field soil was put into a 1/500,000 ha pot, and seeds of large crabgrass (Digitaria sanguinalis L.) were sown. […]
# as §6, with “14th” for “23rd”, “large crabgrass” for “common horsetail”, “2.” for “5.”
Compound,"inhibition at 20 g/ha ([1]; Equisetum arvense, dose 20 g/ha, read-out: Growth inhibition rate (%) of common horsetail, Measured value)","inhibition at 40 g/ha ([1]; Equisetum arvense, dose 40 g/ha, read-out: Growth inhibition rate (%) of common horsetail, Measured value)","inhibition at 40 g/ha ([2]; Digitaria sanguinalis, dose 40 g/ha, read-out: Growth inhibition rate (%) of large crabgrass, Measured value)","inhibition at 20 g/ha ([3]; Digitaria, dose 20 g/ha, read-out: Growth inhibition rate (%) of large crabgrass, Measured value)","inhibition at 20 g/ha ([4]; Commelina communis, dose 20 g/ha, read-out: Growth inhibition rate (%) of common dayflower, Measured value)","inhibition at 40 g/ha ([4]; Commelina communis, dose 40 g/ha, read-out: Growth inhibition rate (%) of common dayflower, Measured value)","inhibition at 20 g/ha ([5]; Digitaria sanguinalis, dose 20 g/ha, read-out: Growth inhibition rate (%) of large crabgrass, Measured value)","Growth inhibition rate (%) of common horsetail, Measured value ([1]; dose 25 g/ha)","Growth inhibition rate (%) of common horsetail, Measured value ([1]; dose 50 g/ha)","Growth inhibition rate (%) of common horsetail, Measured value ([1]; dose 100 g/ha)","Growth inhibition rate (%) of common horsetail, Measured value ([1]; dose 150 g/ha)","Growth inhibition rate (%) of large crabgrass, Measured value ([2]; dose 25 g/ha)","Growth inhibition rate (%) of large crabgrass, Measured value ([2]; dose 50 g/ha)","Growth inhibition rate (%) of large crabgrass, Measured value ([2]; dose 100 g/ha)","Growth inhibition rate (%) of large crabgrass, Measured value ([3]; dose 12.5 g/ha)","Growth inhibition rate (%) of large crabgrass, Measured value ([3]; dose 25 g/ha)","Growth inhibition rate (%) of common dayflower, Measured value ([4]; dose 25 g/ha)","Growth inhibition rate (%) of common dayflower, Measured value ([4]; dose 50 g/ha)","Growth inhibition rate (%) of large crabgrass, Measured value ([5]; dose 50 g/ha)"
"COc1cc(OC)nc(NC(=O)NS(=O)(=O)c2ncccc2C(F)(F)F)n1 [Flazasulfuron, 1-(4,6-dimethoxypyrimidin-2-yl)-3-(3-trifluoromethyl-2-pyridylsulfonyl)urea]",55%,53%,33%,40%,45%,40%,60%,,,,,,,,,,,,
"COC(=O)CCNC(=O)C(C)Sc1cc(-n2c(=O)cc(C(F)(F)F)n(C)c2=O)c(F)cc1Cl (racemic) [Tiafenacil, methyl 3-((2RS)-2-{2-chloro-4-fluoro-5-[1,2,3,6-tetrahydro-3-methyl-2,6-dioxo-4-(trifluoromethyl)pyrimidin-1(6H)-yl]phenylthio}propionamido]propionate]",,,,,,,,63%,63%,68%,55%,5%,5%,8%,20%,30%,50%,60%,65%
